# Measured values taken from publication PMC11536076, “Intraoperative Guidance of Pancreatic Cancer Resection Using a Toll-like Receptor 2–Targeted Fluorescence Molecular Imaging Agent” (Cancer Research Communications, 2024).
# Tests used:
# [1] = Absorbance and fluorescence emission spectra; assay type: physicochemical
# Description: Absorbance and fluorescence emission spectra were generated using a Tecan Infinite M-1000 PRO multimode microplate reader. Solutions of TLR2L-800 were prepared from a 0.367 mmol/L stock solution in DMSO. Aliquots (2 µL) of TLR2L-800 were spotted on each well of a Tecan NanoQuant plate. The absorbance spectrum of TLR2L-800 (183.5 µmol/L in PBS) was acquired from 230 to 1,000 nm with a wavelength step size of 2 nm. The emission spectrum of TLR2L-800 (0.367 mmol/L in DMSO) was acquired with an excitation wavelength starting from 275 nm and emission wavelengths from 450 to 850 nm with an emission wavelength step size of 2 nm and bandwidth of 5 nm.
# [2] = set-up: method as in LI-COR product sheet; conditions: unconjugated dye in water; ref LI-COR product sheet; cited from earlier work
smiles,measurement,setting,value
CC1(C)C(=CC=C2CCCC(C=CC3=[N+](CCCCCC(=O)[O-])c4ccc(S(=O)(=O)[O-])cc4C3(C)C)=C2Oc2ccc(S(=O)(=O)[O-])cc2)N(CCCCS(=O)(=O)[O-])c2ccc(S(=O)(=O)[O-])cc21.[Na+].[Na+].[Na+].[Na+] [IRDye800CW],Stokes shift,[1],15 nm
same,absorbance maxima,[2],774 nm
same,emission maxima,[2],789 nm
